In patent US5981520A, “Piperazino derivatives as neurokinin antagonists” (Schering Corporation, priority 1998, dated 1999) one finds Ki and inhibition data, which are given here for eight compounds.

The target in test [1] is T1, human neurokinin 1 (NK1) receptor (Homo sapiens, UniProt P25103).
T1 construct: expressed in transfected cells; host or cells: Chinese Hamster ovary (CHO) cells
Put plainly: Neurokinin receptor binding assay, NK1 ([3H]-Substance P, CHO membranes). The note with it: for Ki: racemic compounds except specifically defined enantiomers. On the procedure:
(§1) Chinese Hamster ovary (CHO) cells transfected with the coding regions for the human neurokinin 1 (NK1) of the human neurokinin 2 (NK2) receptors are grown in Dulbecco's minimal essential medium supplemented with 10% fetal calf serum, 0.1 mM non-essential amino acids, 2 mM glutamine, 100 units/ml of penicillin and streptomycin, and 0.8 mg of G418/ml at 37° C. in a humidified atmosphere containing 5% CO2.
(§2) Cells are harvested by centrifugation and washed in RPMI media at […] for 5 minutes. The pellet is resuspended inTris-HCl (pH7.4) containing 1 uM phosphoramidon and 4 ug/ml of chymostatin at a cell density of 30×10^6 cells/ml. The suspension is then homogenized in a Brinkman Polytron (setting 5) for 30-45 seconds. The homogenate is centrifuged at 800×g for 5 min at 4° C. to collect unbroken cells and nuclei. The supematant is centrifuged in a Sorvall RC5C at 19,000 rpm ([…]) for 30 min at 4° C. The pellet is resuspended, an aliquot is removed for a protein determination (BCA) and washed again. The resulting pellet is stored at -80° C.
(§3) Binding is initiated by the addition of 100 μl of membrane (10-20 μg) containing the human NK-1 or NK-2 receptor in a final volume of 200 μl. After 40 minutes at room temperature, the reaction is stopped by rapid filtration onto Whatman GF/C filters which have been presoaked in 0.3% polyethylenimine. Filters are washed 2 times with 3 ml of 50 mM Tris-HCl (pH7.4).

For test [2], the target named is T2, human neurokinin 2 (NK2) receptor (Homo sapiens, UniProt P21452).
T2 construct: expressed in transfected cells; host or cells: Chinese Hamster ovary (CHO) cells
T2 sequence (P21452 1-398): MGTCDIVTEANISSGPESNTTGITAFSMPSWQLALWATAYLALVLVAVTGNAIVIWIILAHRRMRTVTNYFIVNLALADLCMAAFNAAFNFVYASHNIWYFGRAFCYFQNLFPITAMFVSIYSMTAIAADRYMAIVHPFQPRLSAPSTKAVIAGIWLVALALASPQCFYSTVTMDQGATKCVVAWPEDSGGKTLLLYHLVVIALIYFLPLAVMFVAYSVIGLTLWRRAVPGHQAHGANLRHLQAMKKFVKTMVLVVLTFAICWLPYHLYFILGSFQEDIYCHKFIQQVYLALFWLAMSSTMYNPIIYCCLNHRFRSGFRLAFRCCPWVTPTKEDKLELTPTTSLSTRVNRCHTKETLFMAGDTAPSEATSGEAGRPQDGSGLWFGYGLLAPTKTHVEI
Put plainly: Neurokinin receptor binding assay, NK2 ([3H]-Neurokinin A, CHO membranes). The note with it: for Ki: racemic compounds except specifically defined enantiomers. The method, then: as §1, §2, §3

The target in the next test is T3, NK3 (Homo sapiens, UniProt P29371).
T3 sequence (P29371 1-465): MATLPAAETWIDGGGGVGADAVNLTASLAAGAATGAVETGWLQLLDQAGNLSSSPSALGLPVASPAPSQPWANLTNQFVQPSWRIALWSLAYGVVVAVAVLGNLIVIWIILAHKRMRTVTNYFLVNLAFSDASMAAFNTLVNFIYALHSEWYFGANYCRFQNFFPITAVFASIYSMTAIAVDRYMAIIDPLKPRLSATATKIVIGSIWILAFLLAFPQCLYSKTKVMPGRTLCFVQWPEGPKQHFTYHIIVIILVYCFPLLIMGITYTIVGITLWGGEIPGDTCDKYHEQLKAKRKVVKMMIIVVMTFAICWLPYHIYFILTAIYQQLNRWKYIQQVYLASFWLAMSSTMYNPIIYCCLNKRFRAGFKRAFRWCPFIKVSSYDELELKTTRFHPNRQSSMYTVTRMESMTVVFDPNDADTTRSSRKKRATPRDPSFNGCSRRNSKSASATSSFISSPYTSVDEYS
The test is described as follows: NK3 radioligand receptor binding assay as described in the literature. The note with it: racemic compounds except specifically defined enantiomers.

T1 sequence (P25103 whole entry): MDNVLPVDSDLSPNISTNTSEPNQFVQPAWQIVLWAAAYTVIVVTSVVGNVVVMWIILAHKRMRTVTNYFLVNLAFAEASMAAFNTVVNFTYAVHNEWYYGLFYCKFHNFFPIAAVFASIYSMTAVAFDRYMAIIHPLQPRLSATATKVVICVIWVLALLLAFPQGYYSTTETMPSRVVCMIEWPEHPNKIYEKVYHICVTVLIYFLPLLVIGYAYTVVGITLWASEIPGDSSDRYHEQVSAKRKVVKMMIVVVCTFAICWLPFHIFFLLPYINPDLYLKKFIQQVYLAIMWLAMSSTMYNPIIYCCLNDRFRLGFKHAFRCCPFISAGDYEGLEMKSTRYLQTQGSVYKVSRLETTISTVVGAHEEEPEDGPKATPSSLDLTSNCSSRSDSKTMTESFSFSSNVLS

The term Ki denotes the equilibrium dissociation constant of an inhibitor or competing ligand from its target. A lower Ki goes with a stronger hold on the target. The inhibition is the percentage by which the read-out fell short of the control. Read a low inhibition as little suppression. `CN(CC(=O)N1CCN(Cc2cc(C(F)(F)F)cc(C(F)(F)F)c2)CC1c1ccc(Cl)c(Cl)c1)C1CCN(Cc2ccccc2)CC1` (stereo not drawn): the affinity in test [1], expressed as Ki, was 74 nM. This compound displayed an inhibition at 1 µM in test [2] of 7%.
Turning to `CC(C)(C)c1cc(C(=O)N2CCN(C(=O)CNC3CCN(Cc4ccccc4)CC3)C(c3ccc(Cl)c(Cl)c3)C2)cc(C(C)(C)C)c1` (stereo not drawn), the inhibition constant (Ki) in test [1] worked out at 63 nM; in test [2], 68 nM.
The compound `O=C(c1cc(C(F)(F)F)cc(C(F)(F)F)c1)N1CCN(C(=O)CNC2CCN(Cc3ccccc3)CC2)C(c2ccc(Cl)c(Cl)c2)C1` (stereo not drawn) gave an inhibition constant (Ki) on NK3 of 433 nM.
In the case of `Cc1cc(C)cc(C(=O)N2CCN(C(=O)C[N+](C)(C)C3CCN(Cc4ccccc4)CC3)C(c3ccc(Cl)c(Cl)c3)C2)c1` (stereo not drawn), the inhibition constant Ki in test [1] was 0.58 nM; in test [2], 93 nM.
As to `O=C(c1cc(O)cc(O)c1)N1CCN(C(=O)CNC2CCN(Cc3ccccc3)CC2)C(c2ccc(Cl)c(Cl)c2)C1` (stereo not drawn), the inhibition at 1 µM is 14% in test [1] and 22% in test [2].
On to `O=C(C1c2ccccc2Oc2ccccc21)N1CCN(C(=O)CNC2CCN(Cc3ccccc3)CC2)C(c2ccc(Cl)c(Cl)c2)C1` (stereo not drawn), for which the Ki in test [1] is 117 nM; in test [2] it was 187 nM.
`O=C(c1ccccc1)N1CCN(C(=O)CNC2CCN(Cc3ccccc3)CC2)C(c2ccc(Cl)c(Cl)c2)C1` (stereo not drawn): the figures for the Ki in test [1] and in test [2] were 93 nM and 3.4 nM, respectively.
The like results for `COc1ccc(C2CN(C(=O)c3cc(C(F)(F)F)cc(C(F)(F)F)c3)CCN2C(=O)CNC2CCN(Cc3ccccc3)CC2)cc1` (stereo not drawn) were, in that order, 2.5 nM and 48 nM.
